Assay results published in US7074807B2, “Compositions and methods for inducing cell death” (Georgetown University, priority 1998, dated 2006).

Key:
[1] = tested on: ERK1; assay: ERK1 activity (MBP phosphorylation of ERK1 immunoprecipitates); format: cell-based, human; settings: 10 mM, 2 h, MDA-MB 231 cells
Method: FIGS. 4A, 4B. Tempol stimulates ERK1 activity. […] WCL (1 mg) were immunoprecipitated with agarose-conjugated anti-ERK1 antibody, and in vitro MBP phosphorylation assay was performed as described in experimental procedures. The incorporation of γ^32P into MBP was determined in a filter binding assay 4A. In other independent experiments, the reaction products were electrophoresed on 15% SDS-PAGE and MBP (at ˜18 kDa) was visualized by autoradiography 4B. Cont/Control, cells grown overnight in serum-free medium, and treated with 1% ethanol for 2 h.
ERK and SAPK/JNK Activities—Whole cell lysates prepared as described above were immunoprecipitated (1 mg) with an agarose conjugated anti-ERK1 antibody or an agarose conjugated anti-JNK1 antibody for 2 h at 4° C. with constant agitation. The immune-complexes were washed 3 times in lysis buffer and once in KBB as mentioned earlier. ERK or JNK activity assay was carried out according to manufacturer's procedures (UBI). […] The radioactive filters were washed and counted as described above. […] The radiolabeled GST-cJun fusion protein was detected by autoradiography.

[2] = tested on: PCI-04A cells; assay: Apoptosis assay (annexin V-FITC/propidium iodide flow cytometry); settings: 10 mM, PCI-04A
Method: FIGS. (7A1–7A3), (7B1–7B2), (7C1–7C3), (7D1–7D2), (7E1–7E3), (7F1–7F2). […] Cells were grown in serum-free medium overnight in T-25 flasks and treated with tempol (10 mM) or tempo (10 mM) for various times, trypsinized, and then resuspended in 200 ul 1× binding buffer as described in experimental procedures. The cell suspension was double-stained with annexin V-FITC and propidium iodide and analyzed by flow cytometry. Background signal was determined by comparison with double-stained, single-stained, or unstained control cells. (7A1–7A3), (7C1–7C3), and (7E1–7E3) are cytograms showing a relative distribution of viable (V), apoptotic (A), and necrotic (N) cells at 2 h following tempol or tempo treatment of MDA-MB 231 cells (A), PCI-04A cells (C), and PC-3 cells (E). (7B1–7B3), (7D1–7D2), and (7F1–7F2) are time course analyses of MDA-MB 231 cells (B), PCT-04A cells (D), and PC-3 cells (F). 100,000 cells were analyzed at each time point in triplicate (B) or quadruplicate (D and F). Solid bars, 1% ethanol, striped bars, 10 mM tempol, empty bars, 10 mM tempo. […] Data shown are representative from three to four independent experiments. (7B1–7B2), Time course analysis of MDA-MB 231 cells undergoing apoptosis (annexin V-FITC staining) (7B1), or necrosis (propidium iodide staining) (7B2). Values shown are mean±s.d. of triplicate determinations per time point in each treatment category, and representative of three to four independent experiments. […] (7D1–7D2), Time course analysis of PCI-04A cells undergoing apoptosis (annexin V-FITC staining) (7D1), or necrosis (propidium iodide staining) (7D2). Values shown are mean±s.d. of quadruplicate determinations per time point in each treatment category. […] (7F1–7F2), Time course analysis of PC-3 cells undergoing apoptosis (annexin V-FITC staining) (7F1), or necrosis (propidium iodide staining) (7F2). Values shown are mean±s.d. of quadruplicate determinations per time point in each treatment category. Control/C, cells treated with 1% ethanol for 2 h.
Apoptosis Assay—ApoAlert Annexin V apoptosis detection system (Clontech Lab Inc., Palo Alto, Calif.) was used to measure the relative distribution of apoptotic and necrotic cells. Briefly, cells were seeded at a density of 1×10^6 cells per 25 cm^2 tissue culture flask in medium containing 10% FBS overnight, followed by washing twice in serum-free medium. Cells were maintained overnight in serum-free medium and exposed to tempol (10 mM) or tempo (10 mM) for various times. This was followed by rinsing twice with serum-free medium prior to trypsinization, dilution in two volumes of serum-free medium, and centrifugation at 10,000× g. The cell pellet was washed once with PBS and resuspended in 200 ul of 1× binding buffer. The cell suspension was double-labeled with fluorescein isothiocyanate (FITC)-labeled annexin V (10 ul) and propidium iodide (PI) (10 ul) according to the manufacturer's instructions. Unlabeled cells or untreated cells labeled with either FITC-annexin V or PI, or double-labeled served as internal controls for the background signal. The intensity of the dye uptake by cells was detected using FACStar plus Flow Cytometer (Becton Dickerson, Lincoln Park, N.J.), and data were analyzed using Reproman True Facts software (Seattle, Wash.). Viable cells were FITC−/PI−, apoptotic cells were FITC+/PI−, and necrotic cells were FITC+/PI+.

Compound | increase in the enzymatic activity of ERK1 [1] | apoptotic cells (A) ([2]; 2 h) | viable cells (V) ([2]; 2 h) | apoptosis and necrosis ([2]; 2 h post-treatment)
CC1(C)CCCC(C)(C)N1[O] [tempo, 2,2,6,6-tetramethylpiperidine-N-oxyl] | no change in ERK1 activity | 48.35% | 18.61% | significant level of apoptosis and necrosis
CC1(C)CC(O)CC(C)(C)N1[O] [tempol, 4-hydroxy-tempo, reference compound] | Approximately 3 fold | 5.44% | – | –
